One test has as its target T1, ALK (Homo sapiens, UniProt Q96SW2+Q9HC35+Q9UM73).
T1 construct: evaluate the effects of the compounds of the present disclosure on the expression of target proteins in cells; endogenous in cells; host or cells: H2228
The experiment in a line: Western blot degradation of ALK (H2228 Cell). It counts as cell-based. Particulars: Table D5. The method in brief: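 Quantification by ImageJ densitometry of Western blot bands: DC50 is the fitted concentration halving band intensity relative to DMSO. Percent remaining uses internal-control normalization, and degradation rate is its complement.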
(In general: A western blot detects proteins with antibodies after separation by electrophoresis.)

The next test deals with MM.1S. Briefly: CCK-8 proliferation, MM.1S. It counts as cell-based. To be noted: Homo sapiens, MM1.S; Table B6, compounds designed based on the ALK inhibitors; MM.1S cells; read-out: Inhibitory activity (IC50, nM) on tumor cell proliferation, MM.1S. The method in brief: (§1)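 Cells seeded, then after 24 h treated with 10 concentrations (top 10 µM, 5-fold serial dilution) for a line-specific time at 37°C, 5% CO2. Viability read by CCK-8; IC50 fitted from growth-inhibition curves.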

For test [1], the target named is T2, human Cereblon WT GST-tagged protein (Homo sapiens, UniProt Q96SW2).
T2 construct: purchased CISBIO 64BDCRBNPEH
The experiment in a line: CRBN binding, HTRF (CEREBLON BINDING kit). To be noted: Table II-2, CRBN binding screening, HTRF; for inhibition at 0.5 µM: read-out: Inhibition rate (%) at 0.5µM; for inhibition at 2 µM: read-out: Inhibition rate (%) at 2 µM. In a few lines:
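Competitive HTRF: GST-tagged human WT Cereblon mixed with compound, Thalidomide-Re tracer and GST Eu antibody, incubated 3 h at room temperature. Signals read at 620 and 665 nm.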

Another test deals with SR. The experiment in a line: CCK-8 proliferation, SR. It counts as cell-based, Human. To be noted: Homo sapiens; Table B6, compounds designed based on the ALK inhibitors; SR cells; read-out: Inhibitory activity (IC50, nM) on tumor cell proliferation, SR. In a few lines: as §1
A further test deals with H2228. Briefly: CCK-8 proliferation, NCI-H2228 (H2228). It counts as cell-based. To be noted: Homo sapiens, NCI-H2228; Table B6, compounds designed based on the ALK inhibitors; H2228 cells; read-out: Inhibitory activity (IC50, nM) on tumor cell proliferation, H2228. In a few lines: as §1
For another test, the system named is MCF7. The experiment in a line: CCK-8 proliferation, MCF7 (MCF-7). It counts as cell-based. To be noted: Homo sapiens, MCF7; Table B6, compounds designed based on the ALK inhibitors; MCF-7 cells; read-out: Inhibitory activity (IC50, nM) on tumor cell proliferation, MCF-7. The method in brief:
as §1

The subject of another test is H1975. The experiment in a line: CCK-8 proliferation, NCI-H1975 (H1975). It counts as cell-based, Human. To be noted: Homo sapiens, NCI-H1975; Table B6, compounds designed based on the ALK inhibitors; H1975 cells; read-out: Inhibitory activity (IC50, nM) on tumor cell proliferation, H1975. In a few lines:
as §1

Molecules are shown by their SMILES.

T1 sequence (Q9HC35+Q9UM73 fused): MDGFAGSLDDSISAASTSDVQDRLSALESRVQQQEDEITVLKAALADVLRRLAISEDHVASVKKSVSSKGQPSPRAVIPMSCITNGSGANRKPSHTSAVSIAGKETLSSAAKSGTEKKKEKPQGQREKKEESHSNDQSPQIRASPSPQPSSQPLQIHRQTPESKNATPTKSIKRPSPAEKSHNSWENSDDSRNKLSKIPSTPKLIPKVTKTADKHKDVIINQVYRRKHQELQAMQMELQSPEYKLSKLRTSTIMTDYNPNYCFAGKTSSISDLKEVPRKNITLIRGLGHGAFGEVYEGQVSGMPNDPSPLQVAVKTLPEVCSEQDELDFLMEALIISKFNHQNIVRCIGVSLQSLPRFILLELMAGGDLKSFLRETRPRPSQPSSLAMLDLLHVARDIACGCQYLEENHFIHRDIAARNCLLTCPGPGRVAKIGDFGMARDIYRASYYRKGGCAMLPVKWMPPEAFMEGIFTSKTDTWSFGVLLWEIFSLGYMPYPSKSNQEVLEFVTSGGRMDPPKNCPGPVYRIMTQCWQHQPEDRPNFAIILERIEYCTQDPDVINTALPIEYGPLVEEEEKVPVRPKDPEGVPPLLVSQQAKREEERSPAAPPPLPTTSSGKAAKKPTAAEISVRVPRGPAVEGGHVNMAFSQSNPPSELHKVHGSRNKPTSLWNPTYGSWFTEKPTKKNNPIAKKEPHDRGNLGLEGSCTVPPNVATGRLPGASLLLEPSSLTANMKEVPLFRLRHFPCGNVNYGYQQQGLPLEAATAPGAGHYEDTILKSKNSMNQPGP
T1 sequence (Q96SW2 whole entry): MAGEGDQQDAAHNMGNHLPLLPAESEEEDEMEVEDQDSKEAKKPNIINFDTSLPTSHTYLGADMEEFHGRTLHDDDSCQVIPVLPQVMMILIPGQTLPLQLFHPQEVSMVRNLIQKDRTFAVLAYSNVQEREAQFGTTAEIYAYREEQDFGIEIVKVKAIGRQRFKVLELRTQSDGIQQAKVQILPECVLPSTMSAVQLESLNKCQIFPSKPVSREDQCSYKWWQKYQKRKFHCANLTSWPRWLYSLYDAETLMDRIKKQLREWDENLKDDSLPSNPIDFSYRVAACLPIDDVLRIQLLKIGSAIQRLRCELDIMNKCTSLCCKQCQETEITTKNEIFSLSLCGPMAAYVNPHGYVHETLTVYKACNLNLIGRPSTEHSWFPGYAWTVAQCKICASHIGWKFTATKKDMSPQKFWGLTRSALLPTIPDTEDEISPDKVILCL
T1 sequence (Q16531 whole entry partner): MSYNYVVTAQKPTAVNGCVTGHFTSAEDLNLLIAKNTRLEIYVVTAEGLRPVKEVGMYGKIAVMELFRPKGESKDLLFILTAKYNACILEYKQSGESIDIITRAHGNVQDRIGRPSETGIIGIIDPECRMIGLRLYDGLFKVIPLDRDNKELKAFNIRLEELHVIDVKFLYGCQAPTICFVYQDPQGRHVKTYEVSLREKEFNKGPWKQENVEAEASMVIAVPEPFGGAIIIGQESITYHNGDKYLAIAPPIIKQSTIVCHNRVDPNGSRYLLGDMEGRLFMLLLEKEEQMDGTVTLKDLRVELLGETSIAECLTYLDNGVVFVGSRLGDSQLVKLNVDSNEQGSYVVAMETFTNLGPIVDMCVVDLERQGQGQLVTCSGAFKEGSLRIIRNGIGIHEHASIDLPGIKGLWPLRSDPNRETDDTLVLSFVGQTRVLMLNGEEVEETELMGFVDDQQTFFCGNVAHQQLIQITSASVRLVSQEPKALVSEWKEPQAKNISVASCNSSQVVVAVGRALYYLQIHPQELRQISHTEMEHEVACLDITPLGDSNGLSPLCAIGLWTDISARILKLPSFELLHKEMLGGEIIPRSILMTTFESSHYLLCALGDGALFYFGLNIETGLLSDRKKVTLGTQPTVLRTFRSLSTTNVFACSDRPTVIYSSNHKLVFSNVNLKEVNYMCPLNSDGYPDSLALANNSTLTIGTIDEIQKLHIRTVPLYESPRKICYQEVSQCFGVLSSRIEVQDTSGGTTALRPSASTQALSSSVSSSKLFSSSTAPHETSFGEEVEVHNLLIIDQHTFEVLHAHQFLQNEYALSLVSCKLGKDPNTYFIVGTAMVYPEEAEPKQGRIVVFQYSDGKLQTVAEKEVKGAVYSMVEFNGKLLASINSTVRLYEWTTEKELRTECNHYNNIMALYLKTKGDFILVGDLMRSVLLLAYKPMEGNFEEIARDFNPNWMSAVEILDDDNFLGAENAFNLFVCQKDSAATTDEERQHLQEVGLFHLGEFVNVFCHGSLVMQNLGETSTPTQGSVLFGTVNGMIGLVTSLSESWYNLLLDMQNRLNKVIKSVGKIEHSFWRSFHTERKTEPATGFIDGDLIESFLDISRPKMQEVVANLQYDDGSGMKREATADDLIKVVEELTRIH
T2 sequence (Q96SW2 whole entry): as the sequence (Q96SW2 whole entry) above

A word on the inhibition: it is the change of the read-out against control, counted positive when it falls. Consider `CCc1cc2c(cc1N1CCC(N3CCN(Cc4ccc(C5CCC(=O)NC5=O)cc4)CC3)CC1)C(C)(C)c1[nH]c3cc(C#N)ccc3c1C2=O` (stereo not drawn) [GT-03762, 8-(4-(4-(4-(2,6-dioxopiperidin-3-yl)benzyl)piperazin-1-yl)piperidin-1-yl)-9-ethyl-6,6-dimethyl-11-oxo-6,11-dihydro-5H-benzo[b]carbazole-3-carbonitrile], for which the “Degradation of substrate protein ALK (substrate protein remaining %)” value (“Degradation … (substrate protein remaining %)” for short) at ALK was “A (A is defined as 0% ≤ substrate protein remaining % ≤ 80%)”. For the same compound, the IC50 in the test on MM.1S fell in the range of 500 to 1000 nM. In test [1], the inhibition at 0.5 µM was in the range of 40 to 53% and the inhibition at 2 µM lay within 60 to 80%. Also, in the test with SR, the IC50 was 1 to 10 nM.

For `CCc1cc2c(cc1N1CCC(N3CCN(Cc4ccc(C5CCC(=O)NC5=O)c(F)c4)CC3)CC1)C(C)(C)c1[nH]c3cc(C#N)ccc3c1C2=O` (stereo not drawn) [GT-03763, 8-(4-(4-(4-(2,6-dioxopiperidin-3-yl)-3-fluorobenzyl)piperazin-1-yl)piperidin-1-yl)-9-ethyl-6,6-dimethyl-11-oxo-6,11-dihydro-5H-benzo[b]carbazole-3-carbonitrile], the “Degradation … (substrate protein remaining %)” value at ALK is listed as “A (A is defined as 0% ≤ substrate protein remaining % ≤ 80%)”. The IC50 in the test on MM.1S fell in the range of 100 to 500 nM. Further, in test [1], the inhibition at 0.5 µM was 40 to 53% and the inhibition at 2 µM is 53 to 60%. Moreover, in the test with SR, the IC50 lay in the range of 1 to 10 nM.

For the compound `CCc1cc2c(cc1N1CCN(Cc3ccc(C4CCC(=O)NC4=O)cc3)CC1)C(C)(C)c1[nH]c3cc(C#N)ccc3c1C2=O` (stereo not drawn) [GT-07323, 8-(4-(4-(2,6-dioxopiperidin-3-yl)benzyl)piperazin-1-yl)-9-ethyl-6,6-dimethyl-11-oxo-6,11-dihydro-5H-benzo[b]carbazole-3-carbonitrile], the “Degradation … (substrate protein remaining %)” value at ALK is “A (A is defined as 0% ≤ substrate protein remaining % ≤ 80%)”. The IC50 in the test on MM.1S lay within 500 to 1000 nM; in the test on SR, 1 to 10 nM; in the test with H2228, 100 to 500 nM.

Regarding `Cc1cc(Nc2ncc(Cl)c(Nc3ccccc3S(=O)(=O)C(C)C)n2)c(OC(C)C)cc1C1CCN(Cc2cccc(N3CCC(=O)NC3=O)c2)CC1` [GT-07593, 1-(3-((4-(4-((5-chloro-4-((2-(isopropylsulfonyl)phenyl)amino)pyrimidin-2-yl)amino)-5-isopropoxy-2-methylphenyl)piperidin-1-yl)methyl)phenyl)dihydropyr imidine-2,4(1H,3H)-dione], the IC50 with MCF7 was 100 to 500 nM; with MM.1S it was 500 to 1000 nM; in the test with SR, 10 to 50 nM; in the test with H2228, 50 to 100 nM. Moreover, at ALK, the “Degradation … (substrate protein remaining %)” value was “A (A is defined as 0% ≤ substrate protein remaining % ≤ 80%)”.

Take `Cc1cc(Nc2ncc(Cl)c(Nc3ccccc3S(=O)(=O)C(C)C)n2)c(OC(C)C)cc1C1CCN(Cc2ccc(C3CCC(=O)NC3=O)cn2)CC1` (stereo not drawn) [GT-07600, 3-(6-((4-(4-((5-chloro-4-((2-(isopropylsulfonyl)phenyl)amino)pyrimidin-2-yl)amino)-5-isopropoxy-2-methylphenyl)piperidin-1-yl)methyl)pyridin-3-yl)piperidine-2,6-dione]: the IC50 in the test on MCF7 is 100 to 500 nM; in the test on MM.1S, 500 to 1000 nM; in the test on SR, 10 to 50 nM; in the test with H2228, 50 to 100 nM. The “Degradation … (substrate protein remaining %)” value at ALK is recorded as “A (A is defined as 0% ≤ substrate protein remaining % ≤ 80%)”.

On to `COc1cc(N2CCC(N3CCN(Cc4cncc(N5CCC(=O)NC5=O)c4)CC3)CC2)ccc1Nc1ncc(Cl)c(Nc2ccccc2P(C)(C)=O)n1` [GT-07610, 1-(5-((4-(1-(4-((5-chloro-4-((2-(dimethylphosphoryl)phenyl)amino)pyrimidin-2-yl)amino)-3-methoxyphenyl)piperidin-4-yl)piperazin-1-yl)methyl)pyridin-3-yl)dihydropyrimidine-2,4(1H,3H)-dione], for which the IC50 in the test on MCF7 was 500 to 1000 nM; with H1975 it was 500 to 1000 nM; with SR it was 1 to 10 nM; in the test with H2228, 50 to 100 nM. On ALK, the “Degradation … (substrate protein remaining %)” value is on record as “A (A is defined as 0% ≤ substrate protein remaining % ≤ 80%)”.

On to `COc1cc(N2CCC(N3CCN(Cc4cncc(C5CCC(=O)NC5=O)c4)CC3)CC2)ccc1Nc1ncc(Cl)c(Nc2ccccc2P(C)(C)=O)n1` (stereo not drawn) [GT-07614, 3-(5-((4-(1-(4-((5-chloro-4-((2-(dimethylphosphoryl)phenyl)amino)pyrimidin-2-yl)amino)-3-methoxyphenyl)piperidin-4-yl)piperazin-1-yl)methyl)pyridin-3-yl)piperidine-2,6-dione], for which the IC50 with MCF7 fell in the range of 500 to 1000 nM; with H1975 it was 500 to 1000 nM; with SR it was 1 to 10 nM; in the test on H2228, 100 to 500 nM. Besides, the “Degradation … (substrate protein remaining %)” value at ALK was “A (A is defined as 0% ≤ substrate protein remaining % ≤ 80%)”.

Take `COc1cc(N2CCC(N(C)Cc3ccc(N4CCC(=O)NC4=O)cn3)CC2)ccc1Nc1ncc(Cl)c(Nc2ccccc2P(C)(C)=O)n1` [GT-07617, 1-(6-(((1-(4-((5-chloro-4-((2-(dimethylphosphoryl)phenyl)amino)pyrimidin-2-yl)amino)-3-methoxyphenyl)piperidin-4-yl)(methyl)amino)methyl)pyridin-3-yl)dihydropyrimidine-2,4(1H,3H)-dione]: the IC50 in the test with MCF7 is 100 to 500 nM; with H1975 it was 500 to 1000 nM; with SR it was 10 to 50 nM; in the test with H2228, 50 to 100 nM. In addition, on ALK, the “Degradation … (substrate protein remaining %)” value was “A (A is defined as 0% ≤ substrate protein remaining % ≤ 80%)”.

As to `COc1cc(N2CCC(N(C)Cc3ccc(N4CCC(=O)NC4=O)nc3)CC2)ccc1Nc1ncc(Cl)c(Nc2ccccc2P(C)(C)=O)n1` [GT-07691, 1-(5-(((1-(4-((5-chloro-4-((2-(dimethylphosphoryl)phenyl)amino)pyrimidin-2-yl)amino)-3-methoxyphenyl)piperidin-4-yl)(methyl)amino)methyl)pyridin-2-yl)dihydropyrimidine-2,4(1H,3H)-dione], the IC50 in the test with MCF7 lay in the range of 100 to 500 nM; with H1975, 100 to 500 nM; in the test with SR, 1 to 10 nM; with H2228, 50 to 100 nM. Further, the “Degradation … (substrate protein remaining %)” value on ALK is on record as “A (A is defined as 0% ≤ substrate protein remaining % ≤ 80%)”.

Turning to `COc1cc(N2CCC(N(C)Cc3ccnc(N4CCC(=O)NC4=O)c3)CC2)ccc1Nc1ncc(Cl)c(Nc2ccccc2P(C)(C)=O)n1` [GT-07694, 1-(4-(((1-(4-((5-chloro-4-((2-(dimethylphosphoryl)phenyl)amino)pyrimidin-2-yl)amino)-3-methoxyphenyl)piperidin-4-yl)(methyl)amino)methyl)pyridin-2-yl)dihydropyrimidine-2,4(1H,3H)-dione], the IC50 was in the range of 100 to 500 nM in the test on MCF7; 100 to 500 nM with H1975; 500 to 1000 nM in the test on MM.1S; 1 to 10 nM in the test on SR; 10 to 50 nM in the test with H2228. Besides, at ALK, the “Degradation … (substrate protein remaining %)” value is on record as “A (A is defined as 0% ≤ substrate protein remaining % ≤ 80%)”.

Take `COc1cc(N2CCC(N(C)Cc3cc(C4CCC(=O)NC4=O)cnc3F)CC2)ccc1Nc1ncc(Cl)c(Nc2ccccc2P(C)(C)=O)n1` (stereo not drawn) [GT-07696, 3-(5-(((1-(4-((5-chloro-4-((2-(dimethylphosphoryl)phenyl)amino)pyrimidin-2-yl)amino)-3-methoxyphenyl)piperidin-4-yl)(methyl)amino)methyl)-6-fluoropyridin-3-yl)piperidine-2,6-dione]: the IC50 in the test on MCF7 was 500 to 1000 nM; in the test with H1975, 500 to 1000 nM; in the test on SR, 10 to 50 nM; with H2228, 100 to 500 nM. Moreover, at ALK, the “Degradation … (substrate protein remaining %)” value was “A (A is defined as 0% ≤ substrate protein remaining % ≤ 80%)”.

Consider `COc1cc(N2CCC(N(C)Cc3ccc(C4CCC(=O)NC4=O)cn3)CC2)ccc1Nc1ncc(Cl)c(Nc2ccccc2P(C)(C)=O)n1` (stereo not drawn) [GT-07698, 3-(6-(((1-(4-((5-chloro-4-((2-(dimethylphosphoryl)phenyl)amino)pyrimidin-2-yl)amino)-3-methoxyphenyl)piperidin-4-yl)(methyl)amino)methyl)pyridin-3-yl)piperidine-2,6-dione], for which the IC50 with MCF7 was 100 to 500 nM; in the test with H1975 it was 500 to 1000 nM; with SR it was 10 to 50 nM; with H2228, 100 to 500 nM. In addition, on ALK, the “Degradation … (substrate protein remaining %)” value was “A (A is defined as 0% ≤ substrate protein remaining % ≤ 80%)”.

Values taken from EP4678638A1, “NEW E3 UBIQUITIN LIGASE LIGAND, PROTEIN DEGRADATION AGENT AND USE THEREOF” (priority 2023, dated 2024).
